What was measured:
IRAK1 = target: T1, IRAK1 (Homo sapiens, UniProt P51617); assay: IRAK1 enzymatic assay (ADP-Glo luminescence); type: biochemical; conditions: purified human recombinant His-TEV-IRAK1 (194-712)
T1 construct: His-TEV-IRAK1 (194-712); His (N); TEV cleavage site (N)
Description: IRAK1 is a human purified recombinant enzyme (His-TEV-IRAK1 (194-712))
In this assay, IRAK1 hydrolyses ATP and autophosphorylates. Measurement of IRAK-1 inhibition is performed in 384-well format based on luminescence assay (ADP-Glo™ Kinase Assay from Promega). Purified human recombinant IRAK1 (0.3 μg/ml) and serial diluted compounds in DMSO (range of concentration from 10 μM to 0.5 nM) or controls (1% DMSO) are incubated for 15 minutes at RT in assay buffer containing 50 mM Hepes pH 7.0, Fatty acid-free BSA 0.1%, Dithiothreitol (DTT) 2 mM, MgCl2 10 mM, EGTA 0.5 mM, Triton X-100 0.01%. The kinase reaction is then initiated by the addition of ATP […] After 2 hours of incubation at RT, the reaction is stopped and the unconsumed ATP depleted by the addition of ADP-Glo™ Reagent according to supplier instructions. After 40 minutes of incubation at RT, the Kinase Detection Reagent is then added to the assay plate according to supplier instructions. After 20 minutes of incubation at RT, the luminescence signal is measured with a luminometer (PerkinElmer Envision or equivalent reader).

IRAK4 = target: T2, IRAK4 (Homo sapiens, UniProt Q9NWZ3); assay: IRAK4 enzymatic assay (ADP-Glo luminescence); type: biochemical; conditions: purified human recombinant His-TEV-IRAK4 (1-460), ATP 2 μM
T2 construct: His-TEV-IRAK4 (1-460); His (N); TEV cleavage site (N)
T2 sequence (Q9NWZ3 1-460): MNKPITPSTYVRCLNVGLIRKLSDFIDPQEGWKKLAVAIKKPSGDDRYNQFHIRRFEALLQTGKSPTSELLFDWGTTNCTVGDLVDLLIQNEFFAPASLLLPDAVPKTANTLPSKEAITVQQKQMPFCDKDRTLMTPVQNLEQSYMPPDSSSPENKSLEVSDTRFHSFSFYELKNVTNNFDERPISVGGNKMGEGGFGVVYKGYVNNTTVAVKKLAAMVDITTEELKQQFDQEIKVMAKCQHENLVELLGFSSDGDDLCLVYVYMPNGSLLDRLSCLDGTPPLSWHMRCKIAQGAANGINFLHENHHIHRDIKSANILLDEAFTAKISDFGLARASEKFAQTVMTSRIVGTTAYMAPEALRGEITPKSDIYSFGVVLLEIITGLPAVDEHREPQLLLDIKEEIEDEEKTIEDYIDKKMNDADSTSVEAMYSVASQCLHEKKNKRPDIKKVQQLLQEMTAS
Description: IRAK4 is a human purified recombinant enzyme (His-TEV-IRAK4 (1-460)).
In this assay, IRAK4 hydrolyses ATP, autophosphorylates and phosphorylates a Serine/Threonine generic peptidic substrate (STK: 61ST1BLC from CisBio International). Measurement of IRAK-4 inhibition is performed in 384-well format based on a luminescence assay (ADP-Glo™ Kinase Assay from Promega). Purified human recombinant IRAK4 (0.3 μg/ml) and serial diluted compounds in DMSO (range of concentration from 10 μM to 0.5 nM) or controls (1% DMSO) are incubated for 15 minutes at RT in assay buffer containing 50 mM Hepes pH 7.0, Fatty acid-free BSA 0.1%, Dithiothreitol (DTT) 2 mM, MgCl2 10 mM, EGTA 0.5 mM, Triton X-100 0.01%, MnCl2 5 mM. The kinase reaction is then initiated by the addition of ATP (2 μM) and the peptidic substrate STK1-biotin peptide (300 nM). After 2 hours of incubation at RT, the reaction is stopped and the unconsumed ATP depleted by the addition of ADP-Glo™ Reagent according to supplier instructions. After 40 minutes of incubation at RT, the Kinase Detection Reagent is then added to the assay plate according to supplier instructions. After 20 minutes of incubation at RT, the luminescence signal is measured with a plate-reading luminometer (PerkinElmer Envision or equivalent reader).

T1 sequence (P51617 194-712): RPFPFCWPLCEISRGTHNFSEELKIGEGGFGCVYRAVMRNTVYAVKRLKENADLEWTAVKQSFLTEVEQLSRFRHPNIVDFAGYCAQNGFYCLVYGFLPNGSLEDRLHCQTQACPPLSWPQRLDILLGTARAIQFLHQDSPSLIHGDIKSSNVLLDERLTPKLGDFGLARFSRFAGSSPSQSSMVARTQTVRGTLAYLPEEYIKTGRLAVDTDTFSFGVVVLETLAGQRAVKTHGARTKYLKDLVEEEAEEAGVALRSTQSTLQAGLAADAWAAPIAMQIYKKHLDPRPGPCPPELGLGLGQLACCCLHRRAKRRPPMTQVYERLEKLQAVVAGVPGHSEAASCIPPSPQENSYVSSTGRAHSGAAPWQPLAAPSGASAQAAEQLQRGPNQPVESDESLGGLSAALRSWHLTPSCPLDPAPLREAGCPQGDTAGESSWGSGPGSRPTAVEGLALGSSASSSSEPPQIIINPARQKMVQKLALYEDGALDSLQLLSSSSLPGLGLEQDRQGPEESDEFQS

| SMILES | IC50 (IRAK1) | IC50 (IRAK4) |
| --- | --- | --- |
| O=C(/N=c1\[nH]c2cc(N3CCOCC3=O)ccc2n1CCCO)c1cccc(F)c1 [Compound 35, (E)-3-fluoro-N-(1-(3-hydroxypropyl)-5-(3-oxomorpholino)-1H-benzo[d]imidazol-2(3H)-ylidene)benzamide] | 100 to 1000 nM | ≤ 100 nM |
| O=C(/N=c1\[nH]c2cc(N3CCOCC3=O)ccc2n1CCCO)c1cccc(C(=O)N2CCOCC2)c1 [Compound 36, (E)-N-(1-(3-hydroxypropyl)-5-(3-oxomorpholino)-1H-benzo[d]imidazol-2(3H)-ylidene)-3-(morpholine-4-carbonyl)benzamide] | 100 to 1000 nM | > 1000 nM |
| O=C(/N=c1\[nH]c2cc(N3CCOCC3=O)ccc2n1CCCO)c1cccc(Br)c1 [Compound 37, (E)-3-bromo-N-(1-(3-hydroxypropyl)-5-(3-oxomorpholino)-1H-benzo[d]imidazol-2(3H)-ylidene)benzamide] | 100 to 1000 nM | ≤ 100 nM |
| COc1ccc(C(=O)/N=c2\[nH]c3cc(N4CCOCC4=O)ccc3n2CCCO)cc1C#N [Compound 38, (E)-3-cyano-N-(1-(3-hydroxypropyl)-5-(3-oxomorpholino)-1H-benzo[d]imidazol-2(3H)-ylidene)-4-methoxybenzamide] | > 1000 nM | > 1000 nM |
| O=C(/N=c1\[nH]c2cc(N3CCOCC3=O)ccc2n1C1(CO)CCCCC1)c1cccc(C(F)(F)F)c1 [Compound 39, (E)-N-(1-(1-(hydroxymethyl)cyclohexyl)-5-(3-oxomorpholino)-1H-benzo[d]imidazol-2(3H)-ylidene)-3-(trifluoromethyl)benzamide] | > 1000 nM | > 1000 nM |
| COc1cc2c(cc1N1CCOCC1=O)[nH]/c(=N\C(=O)c1cccc(C(F)F)c1)n2[C@H](C)CCO [Compound 40, (R,E)-3-(difluoromethyl)-N-(1-(4-hydroxybutan-2-yl)-6-methoxy-5-(3-oxomorpholino)-1H-benzo[d]imidazol-2(3H)-ylidene)benzamide] | ≤ 100 nM | ≤ 100 nM |
| C[C@H](CCO)n1/c(=N/C(=O)c2cccc(C#N)c2)[nH]c2cc(N3CCCOC3=O)ccc21 [Compound 42, (R,E)-3-cyano-N-(1-(4-hydroxybutan-2-yl)-5-(2-oxo-1,3-oxazinan-3-yl)-1H-benzo[d]imidazol-2(3H)-ylidene)benzamide] | 100 to 1000 nM | ≤ 100 nM |
| C[C@H](CCO)n1/c(=N/C(=O)c2cccc(C(F)(F)F)c2)[nH]c2cc(N3CCCOC3=O)ccc21 [Compound 43, (R,E)-N-(1-(4-hydroxybutan-2-yl)-5-(2-oxo-1,3-oxazinan-3-yl)-1H-benzo[d]imidazol-2(3H)-ylidene)-3-(trifluoromethyl)benzamide] | 100 to 1000 nM | ≤ 100 nM |
| C[C@H](CCO)n1/c(=N/C(=O)c2cccc(C(F)F)c2)[nH]c2cc(N3CCCOC3=O)ccc21 [Compound 44, (R,E)-3-(difluoromethyl)-N-(1-(4-hydroxybutan-2-yl)-5-(2-oxo-1,3-oxazinan-3-yl)-1H-benzo[d]imidazol-2(3H)-ylidene)benzamide] | 100 to 1000 nM | ≤ 100 nM |
| O=C(/N=c1\[nH]c2cc(N3CCOCC3=O)ccc2n1C1CCCCC1)c1cccc(C(F)(F)F)c1 [Compound 45, (E)-N-(1-cyclohexyl-5-(3-oxomorpholino)-1H-benzo[d]imidazol-2(3H)-ylidene)-3-(trifluoromethyl)benzamide] | > 1000 nM | 100 to 1000 nM |
| O=C(/N=c1\[nH]c2cc(N3CCCNC3=O)ccc2n1CCCO)c1cccc(C(F)F)c1 [Compound 46, (E)-3-(difluoromethyl)-N-(1-(3-hydroxypropyl)-5-(2-oxotetrahydropyrimidin-1(2H)-yl)-1H-benzo[d]imidazol-2(3H)-ylidene)benzamide] | 100 to 1000 nM | ≤ 100 nM |
| CC(=O)NCc1cccc(C(=O)/N=c2\[nH]c3cc(N4CCOCC4=O)ccc3n2CCCO)c1 [Compound 47, (E)-3-(acetamidomethyl)-N-(1-(3-hydroxypropyl)-5-(3-oxomorpholino)-1H-benzo[d]imidazol-2(3H)-ylidene)benzamide] | 100 to 1000 nM | 100 to 1000 nM |
| N#Cc1cccc(C(=O)/N=c2\[nH]c3cc(N4CCOCC4=O)c(Br)cc3n2CCCO)c1 [Compound 48, (E)-N-(6-bromo-1-(3-hydroxypropyl)-5-(3-oxomorpholino)-1H-benzo[d]imidazol-2(3H)-ylidene)-3-cyanobenzamide] | 100 to 1000 nM | ≤ 100 nM |
| O=C(/N=c1\[nH]c2cc(N3CCOCC3=O)c(Br)cc2n1CCCO)c1cccc(C(F)F)c1 [Compound 49, (E)-N-(6-bromo-1-(3-hydroxypropyl)-5-(3-oxomorpholino)-1H-benzo[d]imidazol-2(3H)-ylidene)-3-(difluoromethyl)benzamide] | 100 to 1000 nM | ≤ 100 nM |
| O=C(/N=c1\[nH]c2cc(N3CCOCC3=O)c(Br)cc2n1CCCO)c1cccc(C(F)(F)F)c1 [Compound 50, (E)-N-(6-bromo-1-(3-hydroxypropyl)-5-(3-oxomorpholino)-1H-benzo[d]imidazol-2(3H)-ylidene)-3-(trifluoromethyl)benzamide] | 100 to 1000 nM | ≤ 100 nM |
| COc1cc2c(cc1N1CCOCC1=O)[nH]/c(=N\C(=O)c1cccc(C#N)c1)n2CC1(CO)CC1 [Compound 51, (E)-3-cyano-N-(1-((1-(hydroxymethyl)cyclopropyl)methyl)-6-methoxy-5-(3-oxomorpholino)-1H-benzo[d]imidazol-2(3H)-ylidene)benzamide] | 100 to 1000 nM | ≤ 100 nM |
| COc1cc2c(cc1N1CCOCC1=O)[nH]/c(=N\C(=O)c1cccc(C(F)F)c1)n2CC1(CO)CC1 [Compound 52, (E)-3-(difluoromethyl)-N-(1-((1-(hydroxymethyl)cyclopropyl)methyl)-6-methoxy-5-(3-oxomorpholino)-1H-benzo[d]imidazol-2(3H)-ylidene)benzamide] | ≤ 100 nM | ≤ 100 nM |
| COc1cc2c(cc1N1CCOCC1=O)[nH]/c(=N\C(=O)c1cccc(C(F)(F)F)c1)n2CC1(CO)CC1 [Compound 53, (E)-N-(1-((1-(hydroxymethyl)cyclopropyl)methyl)-6-methoxy-5-(3-oxomorpholino)-1H-benzo[d]imidazol-2(3H)-ylidene)-3-(trifluoromethyl)benzamide] | ≤ 100 nM | ≤ 100 nM |
| CS(=O)(=O)c1cccc(C(=O)/N=c2\[nH]c3cc(N4CCOCC4=O)ccc3n2[C@H]2CC[C@@H](O)CC2)c1 [Compound 54, cis-(E)-N-(1-(4-hydroxycyclohexyl)-5-(3-oxomorpholino)-1H-benzo[d]imidazol-2(3H)-ylidene)-3-(methylsulfonyl)benzamide] | ≤ 100 nM | ≤ 100 nM |
| N#Cc1cccc(C(=O)/N=c2\[nH]c3cc(N4CCOCC4=O)ccc3n2[C@H]2CC[C@@H](O)CC2)c1 [Compound 55, cis-(E)-3-cyano-N-(1-(4-hydroxycyclohexyl)-5-(3-oxomorpholino)-1H-benzo[d]imidazol-2(3H)-ylidene)benzamide] | ≤ 100 nM | ≤ 100 nM |
| O=C(/N=c1\[nH]c2cc(N3CCOCC3=O)ccc2n1[C@H]1CC[C@@H](O)CC1)c1cccc(C(F)F)c1 [Compound 56, cis-(E)-3-(difluoromethyl)-N-(1-(4-hydroxycyclohexyl)-5-(3-oxomorpholino)-1H-benzo[d]imidazol-2(3H)-ylidene)benzamide] | ≤ 100 nM | ≤ 100 nM |
